Several values for one entry are separate records, joined by “and”; a condition that tells them apart may be missing. Equal values may be shown once. Activity calls are given as the source filed them. How the calls were made is not given here.
Experiments:
[1] = Mycobacterium tuberculosis H37Rv growth inhibition, glycerol free medium, confirmatory screen (AID 504645);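 further: bacteria grown one week before the viability dye was added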; details: M. tuberculosis H37Rv growth inhibition, glycerol-free medium; at 25 µM (top of the series)
[2] = tested on: M. tuberculosis H37Rv growth inhibition, glycerol-free medium; assay: as above; details: for IC90: measured here: 90% growth inhibition

Compound	inhibition [1]	IC50 [2]	IC90 [2]
Cc1[nH]c2ccccc2c1C(=O)COC(=O)c1ccc([N+](=O)[O-])s1	8.85% (inactive)		
O=C(CSc1nc2ccccc2c(=O)[nH]1)NC1CCCCC1		70 nM	0.13 µM
COc1ccc(N2CCN(C(=O)c3ccc(CNc4c(N5CCOCC5)c(=O)c4=O)cc3)CC2)cc1		3410 nM	> 25 µM
Cc1cc(C)n2nc(N)c(N=Nc3ccccc3)c2n1		2490 nM	3.56 µM
CC(C)OC(=O)CSc1ncnc2c1cnn2-c1ccccc1		17900 nM	> 25 µM
CCOC1OC(=O)C(Cl)=C1Nc1ccccc1C (stereo not drawn)		2260 nM	5.59 µM
CCOC(=O)CSc1ncnc2c1cnn2-c1ccc(C)cc1C		4490 nM	6.98 µM
Cc1nc(SCC(=O)NC2CCCCC2)[nH]c(=O)c1C		670 nM and 2390 nM	1.07 µM and 3.73 µM
O=C(c1ccc(CNc2c(N3CCCC3)c(=O)c2=O)cc1)N1CCc2ccccc2C1		4370 nM	> 25 µM
COc1ccc(-n2nnc3c(SCC(=O)OCc4ccccc4)ncnc32)cc1		2810 nM	> 25 µM
CC1CCN(C(=O)c2ccc(CNc3c(N4CCCC4)c(=O)c3=O)cc2)CC1		5850 nM	6.69 µM
COC(=O)C(C)Oc1ccc(Cc2ncc(C(F)(F)F)cc2Cl)cc1 (stereo not drawn)		2620 nM	4.01 µM
O=C(NCCc1ccc(Cl)cc1)c1ccc(CNc2c(N3CCOCC3)c(=O)c2=O)cc1		5060 nM	6.95 µM
O=C(c1ccc(CNc2c(N3CCCC3)c(=O)c2=O)cc1)N1CCN(C2CCCCC2)CC1			> 25 µM
CC1CCCN(C(=O)c2ccc(CNc3c(N4CCCCC4)c(=O)c3=O)cc2)C1 (stereo not drawn)		2580 nM	> 25 µM
CCOC(=O)CSc1ncnc2c1cnn2-c1ccccc1		13100 nM	> 25 µM
CCOC(=O)CSc1ncnc2c1cnn2-c1ccc(C)cc1		10100 nM	> 25 µM
CCOC(=O)CSc1ncnc2c1cnn2-c1ccc(Cl)cc1		4980 nM	> 25 µM
CCc1c(C)nc(SCC(=O)Nc2ccc3c(c2)OCCO3)[nH]c1=O		19400 nM	> 25 µM
COC(=O)C(C)Oc1ccc(-c2nccc(-c3ccccn3)n2)cc1 (stereo not drawn)		2640 nM	4.53 µM

Compound	inhibition [1]	IC50 [2]	IC90 [2]
Nc1c(C(=O)NC2CCCCC2)nsc1C(=O)OCC(=O)NC1CCCCC1		1230 nM	2.64 µM
O=C(c1ccc(CNc2c(N3CCOCC3)c(=O)c2=O)cc1)N1CC=C(c2ccccc2)CC1		1110 nM	2.17 µM
COc1cc(NC(=O)C/C(C)=N/NC(=O)c2ccccn2)c(OC)cc1Cl		2780 nM	7.91 µM
O=C(CSc1nc2c(c(=O)[nH]1)CCC2)Nc1ccc(F)cc1		17100 nM	> 25 µM
COC(=O)CSc1ncnc2c1cnn2-c1ccc(C)cc1C		4500 nM	6.95 µM
Cc1ccc(C(=O)N/N=C(/CC(=O)c2cccs2)C(F)(F)F)cc1		2100 nM	2.81 µM
CNc1nc(SCc2ccccc2Cl)nc2c1CCCC2		1080 nM	2.33 µM
Cc1ccc(NC(=O)C2C3/C=C\CCCCC32)cc1C (stereo not drawn)		1720 nM	> 25 µM
CCOC(=O)COn1c2c(c3c4no[n+]([O-])c4ccc31)CCCC2		1850 nM	2.86 µM
COC(=O)C(C)Sc1ncnc2c1nnn2-c1ccc(F)cc1 (stereo not drawn)		2420 nM	4.38 µM
S=c1nc[nH]c2nc[nH]c12		1480 nM	1.72 µM
Cc1cccc(-c2oc3ccc(-c4ccc5c(c4)OCO5)cc3c2C#Cc2cncn2C)c1		1380 nM	1.86 µM
O=C(/C=C/c1ccccc1)N1CCN(CCN2C(=O)c3cccc4cccc(c34)C2=O)CC1		2070 nM	5.38 µM
CCOC(=O)CSc1ncnc2c1nnn2-c1ccc(F)cc1		3640 nM	6.16 µM
CCOC(=O)c1ccc(NC(=O)Cn2ncc(Cl)c(Cl)c2=O)cc1		440 nM	1.17 µM
COC(=O)C1CC(=O)N(c2ccc(OCc3ccccc3Cl)cc2)C1 (stereo not drawn)		750 nM	3.01 µM
COC(=O)c1cc(=O)n(-c2ccc(F)cc2)c(=Nc2ccc(F)cc2)s1		640 nM	1 µM
CCOc1ccc(-c2cc(C)[n+](CCc3ccc(OC)c(OC)c3)c(-c3ccc(OCC)cc3)c2)cc1		660 nM	1.03 µM
CCc1ccc(/C=C2/C(=O)N(C)C(=S)N2CC(=O)OC)s1		1910 nM	4.61 µM
O=C(CSc1nc2ccccc2c(=O)[nH]1)NCc1ccc(Cl)cc1		630 nM and 2190 nM	0.9 µM and 3.16 µM

Reference: PubChem BioAssay AID504645 (Southern Research Specialized Biocontainment Screening …, 2011)
